Laboratory results published in ChEMBL document CHEMBL1201862, “PubChem BioAssay data set” (2004).
Activity calls are given as the source filed them.

Columns and labels:
Type in all cases: functional
[1] = target: Platelet-derived growth factor receptor alpha (Homo sapiens, UniProt P16234); test: Navigating the Kinome. Panel member name: PDGFRA
[2] = target: Ribosomal protein S6 kinase alpha-3 (Homo sapiens, UniProt P51812);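 also: measured within a kinome-wide profiling panel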
[3] = target: Activated CDC42 kinase 1 (Homo sapiens, UniProt Q07912); test: Navigating the Kinome. Panel member name: ACK1
[4] = target: 5'-AMP-activated protein kinase catalytic subunit alpha-1 (Homo sapiens, UniProt Q13131)
Sequence of 5'-AMP-activated protein kinase catalytic subunit alpha-1 (Q13131 whole entry): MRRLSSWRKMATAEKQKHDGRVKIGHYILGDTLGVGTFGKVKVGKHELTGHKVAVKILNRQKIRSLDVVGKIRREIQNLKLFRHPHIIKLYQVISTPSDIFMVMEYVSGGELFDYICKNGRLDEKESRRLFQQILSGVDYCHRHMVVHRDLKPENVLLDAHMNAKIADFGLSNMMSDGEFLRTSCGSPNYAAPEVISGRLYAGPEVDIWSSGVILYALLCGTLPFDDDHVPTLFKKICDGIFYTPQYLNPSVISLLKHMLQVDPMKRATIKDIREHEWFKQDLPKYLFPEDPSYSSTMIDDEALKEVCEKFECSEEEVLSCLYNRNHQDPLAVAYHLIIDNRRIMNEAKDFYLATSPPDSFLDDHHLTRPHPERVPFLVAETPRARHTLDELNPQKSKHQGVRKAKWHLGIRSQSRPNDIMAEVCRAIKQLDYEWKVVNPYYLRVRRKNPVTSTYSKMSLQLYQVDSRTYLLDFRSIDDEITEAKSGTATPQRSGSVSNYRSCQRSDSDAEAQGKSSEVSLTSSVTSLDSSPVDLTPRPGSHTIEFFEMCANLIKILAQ

[5] = target: ALK tyrosine kinase receptor (Homo sapiens, UniProt Q9UM73);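 also: ALK tested as one member of a kinase panel screen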
[6] = target: T1, Serine/threonine-protein kinase TAO1 (Homo sapiens, UniProt Q7L7X3)
T1 sequence (Q7L7X3 whole entry): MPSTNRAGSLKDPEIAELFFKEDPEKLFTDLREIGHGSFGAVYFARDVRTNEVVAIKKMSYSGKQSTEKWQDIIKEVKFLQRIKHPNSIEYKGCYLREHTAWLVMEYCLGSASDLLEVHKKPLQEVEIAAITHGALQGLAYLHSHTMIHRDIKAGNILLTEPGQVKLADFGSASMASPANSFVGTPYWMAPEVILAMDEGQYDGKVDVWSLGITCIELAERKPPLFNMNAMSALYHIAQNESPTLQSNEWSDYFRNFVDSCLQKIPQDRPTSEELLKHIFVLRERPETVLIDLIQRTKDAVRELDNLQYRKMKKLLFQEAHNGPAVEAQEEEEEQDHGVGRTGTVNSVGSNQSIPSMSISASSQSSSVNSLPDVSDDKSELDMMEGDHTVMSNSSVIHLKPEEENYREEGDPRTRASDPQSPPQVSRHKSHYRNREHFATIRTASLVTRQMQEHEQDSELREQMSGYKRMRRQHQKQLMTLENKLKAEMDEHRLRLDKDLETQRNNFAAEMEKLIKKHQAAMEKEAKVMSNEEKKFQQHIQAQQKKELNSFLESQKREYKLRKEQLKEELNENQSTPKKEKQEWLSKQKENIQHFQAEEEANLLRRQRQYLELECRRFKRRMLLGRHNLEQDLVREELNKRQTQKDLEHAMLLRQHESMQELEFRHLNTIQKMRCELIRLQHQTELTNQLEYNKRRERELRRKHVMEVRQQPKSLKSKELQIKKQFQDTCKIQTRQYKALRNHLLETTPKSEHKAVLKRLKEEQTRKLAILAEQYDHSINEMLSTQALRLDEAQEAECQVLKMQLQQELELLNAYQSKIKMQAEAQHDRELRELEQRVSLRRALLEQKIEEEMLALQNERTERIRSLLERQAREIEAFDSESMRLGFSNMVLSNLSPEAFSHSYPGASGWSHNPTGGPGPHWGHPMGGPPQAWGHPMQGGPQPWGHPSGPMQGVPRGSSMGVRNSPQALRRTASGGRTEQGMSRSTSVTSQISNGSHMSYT

[7] = target: Mitogen-activated protein kinase 8 (Homo sapiens, UniProt P45983);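 also: value comes from one member of a kinome-wide kinase profiling panel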
Sequence of Mitogen-activated protein kinase 8 (P45983 whole entry): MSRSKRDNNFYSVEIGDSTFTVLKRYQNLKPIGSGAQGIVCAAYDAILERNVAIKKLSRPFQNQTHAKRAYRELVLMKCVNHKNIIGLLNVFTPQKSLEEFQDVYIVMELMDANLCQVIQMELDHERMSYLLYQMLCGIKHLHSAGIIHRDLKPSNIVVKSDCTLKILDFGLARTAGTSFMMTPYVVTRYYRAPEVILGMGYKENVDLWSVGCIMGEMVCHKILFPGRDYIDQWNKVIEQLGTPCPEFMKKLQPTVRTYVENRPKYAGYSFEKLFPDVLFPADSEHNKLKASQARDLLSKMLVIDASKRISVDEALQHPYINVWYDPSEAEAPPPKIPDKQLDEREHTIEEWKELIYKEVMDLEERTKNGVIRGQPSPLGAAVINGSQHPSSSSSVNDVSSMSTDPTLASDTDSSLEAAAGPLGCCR

[8] = target: T2, Serine/threonine-protein kinase Chk1 (Homo sapiens, UniProt O14757);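 also: measured as one member of a kinome-wide kinase profiling panel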
T2 sequence (O14757 whole entry): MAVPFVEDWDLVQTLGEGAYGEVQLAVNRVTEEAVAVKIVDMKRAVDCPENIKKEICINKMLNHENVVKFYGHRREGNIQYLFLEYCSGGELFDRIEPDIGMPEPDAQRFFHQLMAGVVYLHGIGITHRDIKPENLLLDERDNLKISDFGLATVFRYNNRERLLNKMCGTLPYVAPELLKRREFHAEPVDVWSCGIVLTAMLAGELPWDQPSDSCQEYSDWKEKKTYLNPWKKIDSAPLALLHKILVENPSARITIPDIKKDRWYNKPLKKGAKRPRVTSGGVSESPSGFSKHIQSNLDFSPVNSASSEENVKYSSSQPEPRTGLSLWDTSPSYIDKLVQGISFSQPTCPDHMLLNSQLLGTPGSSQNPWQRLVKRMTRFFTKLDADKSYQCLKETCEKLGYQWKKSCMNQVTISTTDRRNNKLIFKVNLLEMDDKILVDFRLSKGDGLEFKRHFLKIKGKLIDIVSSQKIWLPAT

[9] = target: Dual specificity mitogen-activated protein kinase kinase 2 (Homo sapiens, UniProt P36507); test: Navigating the Kinome. Panel member name: MAP2K2
[10] = target: Dual specificity tyrosine-phosphorylation-regulated kinase 1A (Homo sapiens, UniProt Q13627);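 also: measured against DYRK1A as one member of a broad kinome profiling panel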
[11] = target: Vascular endothelial growth factor receptor 1 (Homo sapiens, UniProt P17948);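 also: measured within a kinome-wide profiling panel, FLT1 as the panel member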
Sequence of Vascular endothelial growth factor receptor 1 (P17948 whole entry): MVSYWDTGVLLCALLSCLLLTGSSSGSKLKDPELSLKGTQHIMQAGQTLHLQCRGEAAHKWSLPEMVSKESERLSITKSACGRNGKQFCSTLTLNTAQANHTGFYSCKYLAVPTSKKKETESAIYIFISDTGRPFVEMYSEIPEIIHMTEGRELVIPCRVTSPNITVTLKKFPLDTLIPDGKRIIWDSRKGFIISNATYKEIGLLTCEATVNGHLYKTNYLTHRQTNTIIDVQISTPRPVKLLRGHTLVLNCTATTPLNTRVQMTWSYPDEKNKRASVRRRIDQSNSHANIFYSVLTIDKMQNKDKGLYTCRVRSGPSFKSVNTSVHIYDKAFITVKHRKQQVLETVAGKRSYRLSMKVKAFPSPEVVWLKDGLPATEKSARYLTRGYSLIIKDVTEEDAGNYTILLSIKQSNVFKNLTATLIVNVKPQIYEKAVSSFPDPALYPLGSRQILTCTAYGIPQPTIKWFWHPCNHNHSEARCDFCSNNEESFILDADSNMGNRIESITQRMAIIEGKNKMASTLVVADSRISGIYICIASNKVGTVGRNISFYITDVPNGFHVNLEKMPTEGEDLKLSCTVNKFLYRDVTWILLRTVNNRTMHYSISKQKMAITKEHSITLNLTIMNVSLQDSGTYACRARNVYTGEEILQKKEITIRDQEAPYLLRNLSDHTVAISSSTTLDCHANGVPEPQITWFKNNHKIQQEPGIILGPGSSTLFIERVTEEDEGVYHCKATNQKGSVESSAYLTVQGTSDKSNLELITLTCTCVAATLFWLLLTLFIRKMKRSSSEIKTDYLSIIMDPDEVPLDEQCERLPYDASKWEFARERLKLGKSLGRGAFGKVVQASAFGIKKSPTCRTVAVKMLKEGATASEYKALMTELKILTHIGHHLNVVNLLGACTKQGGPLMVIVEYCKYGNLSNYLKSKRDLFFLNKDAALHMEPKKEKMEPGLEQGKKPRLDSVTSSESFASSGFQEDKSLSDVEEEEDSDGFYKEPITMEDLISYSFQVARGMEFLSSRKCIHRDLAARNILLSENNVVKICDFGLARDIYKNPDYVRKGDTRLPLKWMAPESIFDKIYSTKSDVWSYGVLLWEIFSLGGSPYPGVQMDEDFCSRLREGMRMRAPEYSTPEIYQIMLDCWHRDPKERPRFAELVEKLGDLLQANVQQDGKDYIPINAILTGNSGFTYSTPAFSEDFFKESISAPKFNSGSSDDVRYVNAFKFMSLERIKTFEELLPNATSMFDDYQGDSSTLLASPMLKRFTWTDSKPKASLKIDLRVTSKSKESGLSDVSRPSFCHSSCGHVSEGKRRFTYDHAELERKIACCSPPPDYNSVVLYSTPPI

[12] = target: BDNF/NT-3 growth factors receptor (Homo sapiens, UniProt Q16620);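 also: NTRK2 measured as one member of a broad kinome-wide kinase profiling panel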
[13] = target: Serine/threonine-protein kinase pim-1 (Homo sapiens, UniProt P11309)
[14] = target: Hepatocyte growth factor receptor (Homo sapiens, UniProt P08581);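 also: kinase panel profiling across the kinome, with MET as the panel member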
[15] = target: Tyrosine-protein kinase Fyn (Homo sapiens, UniProt P06241)
Sequence of Tyrosine-protein kinase Fyn (P06241 whole entry): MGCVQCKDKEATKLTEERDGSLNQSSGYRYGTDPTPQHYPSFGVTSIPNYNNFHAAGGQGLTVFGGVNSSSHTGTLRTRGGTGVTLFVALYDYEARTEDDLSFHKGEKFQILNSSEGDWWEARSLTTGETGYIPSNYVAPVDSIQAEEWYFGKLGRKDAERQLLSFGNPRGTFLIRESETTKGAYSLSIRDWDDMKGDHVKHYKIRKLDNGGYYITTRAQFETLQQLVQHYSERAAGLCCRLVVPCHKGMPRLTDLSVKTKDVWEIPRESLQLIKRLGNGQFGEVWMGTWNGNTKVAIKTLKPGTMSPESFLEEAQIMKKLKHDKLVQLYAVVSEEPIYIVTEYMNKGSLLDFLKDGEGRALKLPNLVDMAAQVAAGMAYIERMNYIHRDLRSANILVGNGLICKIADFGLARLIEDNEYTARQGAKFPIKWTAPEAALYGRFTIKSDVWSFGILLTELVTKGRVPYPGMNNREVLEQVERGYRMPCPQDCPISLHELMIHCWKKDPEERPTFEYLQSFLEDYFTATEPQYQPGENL

[16] = target: T3, Serine/threonine-protein kinase Nek2 (Homo sapiens, UniProt P51955)
T3 sequence (P51955 whole entry): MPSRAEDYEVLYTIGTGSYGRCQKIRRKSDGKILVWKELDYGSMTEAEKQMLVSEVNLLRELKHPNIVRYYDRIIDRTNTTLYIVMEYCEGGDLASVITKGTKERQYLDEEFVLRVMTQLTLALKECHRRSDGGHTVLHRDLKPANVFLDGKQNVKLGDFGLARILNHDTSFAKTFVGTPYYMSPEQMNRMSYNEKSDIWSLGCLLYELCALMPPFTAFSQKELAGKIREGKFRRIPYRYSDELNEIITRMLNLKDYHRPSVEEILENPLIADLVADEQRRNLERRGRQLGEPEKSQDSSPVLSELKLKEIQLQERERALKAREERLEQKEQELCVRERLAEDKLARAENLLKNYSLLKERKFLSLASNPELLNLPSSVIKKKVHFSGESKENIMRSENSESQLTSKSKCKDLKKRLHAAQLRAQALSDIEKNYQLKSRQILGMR

[17] = target: Macrophage-stimulating protein receptor (Homo sapiens, UniProt Q04912); test: Navigating the Kinome. Panel member name: MST1R
Sequence of Macrophage-stimulating protein receptor (Q04912 25-304 limits assumed): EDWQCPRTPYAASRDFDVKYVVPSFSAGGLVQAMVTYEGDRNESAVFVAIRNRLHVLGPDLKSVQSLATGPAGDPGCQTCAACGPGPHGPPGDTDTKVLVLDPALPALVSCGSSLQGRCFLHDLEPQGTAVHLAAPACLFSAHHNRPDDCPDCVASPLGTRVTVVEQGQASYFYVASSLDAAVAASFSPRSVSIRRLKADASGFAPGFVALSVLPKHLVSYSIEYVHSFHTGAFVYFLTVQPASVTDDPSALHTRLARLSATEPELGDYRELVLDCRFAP
Sequence of Macrophage-stimulating protein receptor (Q04912 310-1400 limits assumed): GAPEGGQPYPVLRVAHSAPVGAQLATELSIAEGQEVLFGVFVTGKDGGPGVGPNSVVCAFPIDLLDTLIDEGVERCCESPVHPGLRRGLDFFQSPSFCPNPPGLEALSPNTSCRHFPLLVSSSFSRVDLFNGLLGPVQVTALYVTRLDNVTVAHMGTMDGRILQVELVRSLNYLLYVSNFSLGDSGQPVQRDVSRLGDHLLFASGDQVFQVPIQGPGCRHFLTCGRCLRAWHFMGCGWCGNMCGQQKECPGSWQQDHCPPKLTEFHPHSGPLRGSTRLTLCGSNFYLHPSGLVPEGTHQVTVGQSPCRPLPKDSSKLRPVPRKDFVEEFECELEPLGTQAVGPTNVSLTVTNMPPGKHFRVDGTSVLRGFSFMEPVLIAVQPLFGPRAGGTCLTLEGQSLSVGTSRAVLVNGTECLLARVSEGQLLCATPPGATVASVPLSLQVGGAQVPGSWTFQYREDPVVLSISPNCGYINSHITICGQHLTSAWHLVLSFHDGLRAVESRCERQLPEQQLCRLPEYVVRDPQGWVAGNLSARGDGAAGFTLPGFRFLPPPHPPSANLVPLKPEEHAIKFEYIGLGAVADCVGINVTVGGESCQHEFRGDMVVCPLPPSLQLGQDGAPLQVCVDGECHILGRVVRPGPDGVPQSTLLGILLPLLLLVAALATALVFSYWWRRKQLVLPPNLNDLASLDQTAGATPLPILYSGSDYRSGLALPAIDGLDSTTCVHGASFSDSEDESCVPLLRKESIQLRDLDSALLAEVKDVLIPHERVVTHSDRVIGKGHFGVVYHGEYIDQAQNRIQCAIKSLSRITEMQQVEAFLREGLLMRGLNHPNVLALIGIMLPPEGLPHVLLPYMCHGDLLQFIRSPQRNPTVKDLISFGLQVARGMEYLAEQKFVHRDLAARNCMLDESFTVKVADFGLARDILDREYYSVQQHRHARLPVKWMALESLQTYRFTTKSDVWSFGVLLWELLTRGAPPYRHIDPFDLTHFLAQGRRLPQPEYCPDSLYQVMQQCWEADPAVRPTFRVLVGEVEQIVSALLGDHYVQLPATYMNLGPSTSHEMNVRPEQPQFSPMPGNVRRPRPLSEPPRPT

Sequence of Ribosomal protein S6 kinase alpha-3 (P51812 whole entry): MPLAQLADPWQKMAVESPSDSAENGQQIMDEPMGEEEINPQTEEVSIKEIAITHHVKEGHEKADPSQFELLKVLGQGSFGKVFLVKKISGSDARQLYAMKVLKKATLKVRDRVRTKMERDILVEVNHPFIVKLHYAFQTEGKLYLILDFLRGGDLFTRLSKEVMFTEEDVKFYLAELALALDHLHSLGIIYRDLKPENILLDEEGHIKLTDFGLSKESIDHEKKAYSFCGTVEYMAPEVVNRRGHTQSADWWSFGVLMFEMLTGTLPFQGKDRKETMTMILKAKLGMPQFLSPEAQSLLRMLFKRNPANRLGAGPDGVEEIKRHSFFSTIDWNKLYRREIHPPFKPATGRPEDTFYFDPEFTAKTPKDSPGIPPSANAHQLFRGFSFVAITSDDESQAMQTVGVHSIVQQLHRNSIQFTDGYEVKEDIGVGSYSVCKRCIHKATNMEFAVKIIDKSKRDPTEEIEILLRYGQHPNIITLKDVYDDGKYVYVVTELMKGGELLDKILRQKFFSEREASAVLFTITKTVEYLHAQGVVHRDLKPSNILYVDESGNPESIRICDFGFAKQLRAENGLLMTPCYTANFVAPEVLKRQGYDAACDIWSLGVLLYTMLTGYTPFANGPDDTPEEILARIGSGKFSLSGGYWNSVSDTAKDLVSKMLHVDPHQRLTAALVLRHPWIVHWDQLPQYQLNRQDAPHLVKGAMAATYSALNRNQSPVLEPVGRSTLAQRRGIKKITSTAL

Ki [1]	Ki [2]	Ki [3]	Ki [4]	Ki [5]	Ki [6]	Ki [7]	Ki [8]	Ki [9]	Ki [10]	Ki [11]	Ki [12]	Ki [13]	Ki [14]	Ki [15]	Ki [16]	Ki [17]	SMILES	pKi [5]
2 µM (active)	3.16 µM (active)	> 3.98 µM (inactive)	2 µM (active)	> 6.31 µM (inactive)	3.98 µM (active)	> 5.01 µM (inactive)	0.316 µM (active)	3.16 µM (active)	0.631 µM (active)	3.16 µM (active)	> 3.98 µM (inactive)	1.26 µM (active)	0.631 µM (active)	> 6.31 µM (inactive)	1.26 µM (active)	3.98 µM (active)	Cc1ccc(C)c(NC(=O)c2cc(-c3ccco3)nc3ccccc23)c1	–
0.2 µM (active)	1.58 µM (active)	1.26 µM (active)	0.794 µM (active)	1.58 µM (active)	1 µM (active)	> 5.01 µM (inactive)	0.0316 µM (active)	> 3.98 µM (inactive)	0.0794 µM (active)	0.316 µM (active)	> 3.98 µM (inactive)	> 6.31 µM (inactive)	0.316 µM (active)	> 6.31 µM (inactive)	0.2 µM (active)	0.501 µM (active)	COc1ccc(C2=NNc3cccc4c(OC)ccc2c34)cc1OC	–

SMILES	Ki [1]	Ki [2]	Ki [3]	Ki [4]	Ki [5]	Ki [6]	Ki [7]	Ki [8]	Ki [9]	Ki [10]	Ki [11]	Ki [12]	Ki [13]	Ki [14]	Ki [15]	Ki [16]	Ki [17]	pKi [5]
CN1CCC(c2c(O)cc(O)c3c(=O)cc(-c4ccccc4Cl)oc23)C(O)C1 (configuration not stated)	> 2.51 µM (inactive)	1.26 µM (active)	> 3.98 µM (inactive)	> 2.51 µM (inactive)	0.631 µM (active)	0.794 µM (active)	> 3.98 µM (inactive)	> 6.31 µM (inactive)	> 3.98 µM (inactive)	0.794 µM (active)	> 2 µM (inactive)	> 3.98 µM (inactive)	0.794 µM (active)	> 2.51 µM (inactive)	> 3.16 µM (inactive)	> 6.31 µM (inactive)	> 3.98 µM (inactive)	6.2
